Results taken from ChEMBL document CHEMBL1134884, “Novel indolo[2,1-b]quinazoline analogues as cytostatic agents: synthesis, biological evaluation and structure-activity relationship” (Bioorg Med Chem Lett, 2002).

Key:
A498 = test: Tested for in vitro cytotoxic activity against renal A498 human cancer cell lines; format: functional
SK-OV-3 = test: Tested for in vitro cytotoxic activity against ovarian SKOV3 human cancer cell lines; format: functional
NCI-H522 = test: Tested for in vitro cytotoxic activity against lung H522 human cancer cell lines; format: functional
U-251 = test: Tested for in vitro cytotoxic activity against CNS U251 human cancer cell lines; format: functional
NCI/ADR-RES = test: Tested for in vitro cytotoxic activity against breast MCF-7/ADR human cancer cell lines; format: functional
M14 = test: Tested for in vitro cytotoxic activity against melanoma M14 human cancer cell lines; format: functional
DU-145 = test: Tested for in vitro cytotoxic activity against prostate DU145 human cancer cell lines; format: functional
SW-620 = test: Tested for in vitro cytotoxic activity against colon SW620 human cancer cell lines; format: functional
Mus musculus [1] = species on record: Mus musculus; test: Antitumor activity after 24 days was determined.; format: functional
[2] = Bioavailability (dose 20 mg/kg); format: ADME, organism-based; settings: eutheria, in vivo
Mus musculus [3] = test: Maximum mean weight loss on 24th day after administration of 40 mg/kg daily for 10 days(total 400 mg/kg).; format: functional
Mus musculus [4] = species on record: Mus musculus; test: Antitumor activity after 17 days was determined.; format: functional
Mus musculus [5] = test: Maximum mean weight loss on 26th day after administration of 40 mg/kg daily for 10 days(total 400 mg/kg).; format: functional

| Structure (SMILES) | GI50 (A498) | GI50 (SK-OV-3) | GI50 (NCI-H522) | GI50 (U-251) | GI50 (NCI/ADR-RES) | GI50 (M14) | GI50 (DU-145) | GI50 (SW-620) | Optimum T/C (Mus musculus [1]) | bioavailability [2] | Max mean weight loss (Mus musculus [3]) | Optimum T/C (Mus musculus [4]) | Max mean weight loss (Mus musculus [5]) |
| --- | --- | --- | --- | --- | --- | --- | --- | --- | --- | --- | --- | --- | --- |
| COc1ccc2c(c1)C(=O)c1nc3ccccc3c(=O)n1-2 | > 100 µM | > 100 µM | > 100 µM | > 100 µM | > 100 µM | > 100 µM | > 100 µM | > 100 µM | – | – | – | – | – |
| O=c1c2ccccc2nc2n1-c1ccccc1/C2=N\OCCN1CCCC1 | 5 µM | 3 µM | 3 µM | 25 µM | 6 µM | 2 µM | 3 µM | 0.85 µM | – | – | – | – | – |
| O=c1c2ccccc2nc2n1-c1ccc([N+](=O)[O-])cc1/C2=N\OCCO | 0.6 µM | 2 µM | 0.7 µM | 0.8 µM | 0.4 µM | 2 µM | 2.5 µM | 0.75 µM | – | – | – | – | – |
| CCCCC1(O)c2ccccc2-n2c1nc1ccccc1c2=O (centres undefined) | > 100 µM | > 100 µM | > 100 µM | > 100 µM | > 100 µM | > 100 µM | > 100 µM | > 100 µM | – | – | – | – | – |
| CN(C)CCO/N=C1\c2cc(Br)ccc2-n2c1nc1ccccc1c2=O | 1.5 µM | 3 µM | 2 µM | 0.45 µM | 0.06 µM | 2 µM | 0.2 µM | 3 µM | – | – | – | – | – |
| CN1CCN(CC(=O)Nc2ccc3c(c2)C(=O)c2nc4ccccc4c(=O)n2-3)CC1 | 20 µM | 6 µM | 15 µM | > 100 µM | 20 µM | 8 µM | 10 µM | 10 µM | – | – | – | – | – |
| O=C(CO/N=C1\c2ccccc2-n2c1nc1ccccc1c2=O)Nc1ccccn1 | 20 µM | 52 µM | 25 µM | 8.5 µM | 8 µM | 95 µM | 10 µM | > 100 µM | – | – | – | – | – |
| O=C1c2ccccc2-n2c1nc1ccc([N+](=O)[O-])cc1c2=O | > 100 µM | > 100 µM | > 100 µM | > 100 µM | > 100 µM | > 100 µM | > 100 µM | > 100 µM | – | – | – | – | – |
| O=C1c2cc(Cl)ccc2-n2c1nc1ccccc1c2=O | > 100 µM | > 100 µM | > 100 µM | > 100 µM | > 100 µM | > 100 µM | > 100 µM | > 100 µM | – | – | – | – | – |
| CN(C)CCCO/N=C1\c2ccccc2-n2c1nc1ccccc1c2=O | 4 µM | 2 µM | 0.6 µM | 0.7 µM | 7.5 µM | 5 µM | 3.5 µM | 4 µM | – | – | – | – | – |
| CCCC(=O)Nc1ccc2c(c1)C(=O)c1nc3ccccc3c(=O)n1-2 | 20 µM | 6 µM | 18.2 µM | 12 µM | 10 µM | 18.5 µM | 20 µM | 10.5 µM | – | – | – | – | – |
| O=Nc1c2ccccc2n2c(O)c3ccccc3nc12 | 60 µM | 30 µM | 50 µM | 15 µM | 15 µM | 40 µM | 50 µM | 8 µM | – | – | – | – | – |
| Nc1ccc2nc3n(c(=O)c2c1)-c1ccccc1C3=O | 80 µM | 40 µM | 60 µM | 70 µM | 40 µM | 60 µM | 60 µM | 60 µM | – | – | – | – | – |
| CCC(=O)Nc1ccc2c(c1)C(=O)c1nc3ccccc3c(=O)n1-2 | 7 µM | 8 µM | 18 µM | > 100 µM | 20 µM | 10 µM | 10 µM | 22 µM | – | – | – | – | – |
| Cc1ccc2c(c1)C(=O)c1nc3ccccc3c(=O)n1-2 | 60 µM | > 100 µM | 0.15 µM | 20 µM | 0.1 µM | 60 µM | > 100 µM | > 100 µM | – | – | – | – | – |
| O=c1c2ccccc2nc2n1-c1ccccc1/C2=N\OCCO | 40 µM | 20 µM | 7 µM | 1 µM | 0.01 µM | 30 µM | 3 µM | 20 µM | – | – | – | – | – |
| O=C1c2cc([N+](=O)[O-])ccc2-n2c1nc1ccccc1c2=O | 2 µM | 25 µM | 4.8 µM | 4.5 µM | 1 µM | 15 µM | 8 µM | 25 µM | – | – | – | – | – |
| Nc1ccc2c(c1)C(=O)c1nc3ccccc3c(=O)n1-2 | 3 µM | 5 µM | 5 µM | 0.7 µM | 5 µM | 5 µM | 2 µM | 4.8 µM | – | – | – | – | – |

| Structure (SMILES) | GI50 (A498) | GI50 (SK-OV-3) | GI50 (NCI-H522) | GI50 (U-251) | GI50 (NCI/ADR-RES) | GI50 (M14) | GI50 (DU-145) | GI50 (SW-620) | Optimum T/C (Mus musculus [1]) | bioavailability [2] | Max mean weight loss (Mus musculus [3]) | Optimum T/C (Mus musculus [4]) | Max mean weight loss (Mus musculus [5]) |
| --- | --- | --- | --- | --- | --- | --- | --- | --- | --- | --- | --- | --- | --- |
| O=C1c2cc(Br)ccc2-n2c1nc1ccccc1c2=O | 3 µM | 5 µM | 0.7 µM | > 100 µM | 0.7 µM | 0.8 µM | 0.15 µM | 0.4 µM | – | – | – | – | – |
| CC(=O)Nc1ccc2c(c1)C(=O)c1nc3ccccc3c(=O)n1-2 | 0.4 µM | 20 µM | 5 µM | 20 µM | 0.4 µM | 10 µM | 0.5 µM | 30 µM | – | – | – | – | – |
| CN(C)CCO/N=C1\c2cc([N+](=O)[O-])ccc2-n2c1nc1ccccc1c2=O | > 100 µM | 9 µM | 9 µM | 7.5 µM | 4 µM | 7.5 µM | > 100 µM | 0.75 µM | – | – | – | – | – |
| COC(=O)CO/N=C1\c2ccccc2-n2c1nc1ccccc1c2=O | > 100 µM | 50 µM | 80 µM | > 100 µM | 0.01 µM | 40 µM | 30 µM | > 100 µM | – | – | – | – | – |
| C=CC1(O)c2ccccc2-n2c1nc1ccccc1c2=O (centres undefined) | 12 µM | 6 µM | 15 µM | 12 µM | 20 µM | 8 µM | 10 µM | 10 µM | – | – | – | – | – |
| CC1(O)c2ccccc2-n2c1nc1ccccc1c2=O (centres undefined) | > 100 µM | > 100 µM | > 100 µM | > 100 µM | > 100 µM | > 100 µM | > 100 µM | > 100 µM | – | – | – | – | – |
| COc1cc2nc3n(c(=O)c2cc1OC)-c1ccccc1C3=O | > 100 µM | > 100 µM | > 100 µM | > 100 µM | > 100 µM | > 100 µM | > 100 µM | > 100 µM | – | – | – | – | – |
| CN(C)CCO/N=C1\c2ccccc2-n2c1nc1ccccc1c2=O | 0.6 µM | 2 µM | 0.7 µM | 0.8 µM | 0.4 µM | 2 µM | 2.5 µM | 0.75 µM | 75% | 14% | 14% | – | – |
| CS(=O)(=O)Nc1ccc2c(c1)C(=O)c1nc3ccccc3c(=O)n1-2 | > 100 µM | > 100 µM | > 100 µM | > 100 µM | > 100 µM | > 100 µM | > 100 µM | > 100 µM | – | – | – | – | – |
| O=c1c2ccccc2nc2n1-c1ccccc1/C2=N\OCCCN1CCCC1 | 7 µM | 4 µM | 4 µM | 6 µM | 5 µM | 6 µM | 5 µM | 4.5 µM | – | – | – | – | – |
| O=C(CCl)Nc1ccc2c(c1)C(=O)c1nc3ccccc3c(=O)n1-2 | 0.4 µM | 0.05 µM | 4 µM | 0.2 µM | 0.06 µM | 0.9 µM | 0.25 µM | 0.6 µM | – | – | – | – | – |
| O=C(/C=C/c1ccccc1)O/N=C1\c2ccccc2-n2c1nc1ccccc1c2=O | 10 µM | 6 µM | 45 µM | 20 µM | 7.5 µM | 90 µM | > 100 µM | 60 µM | – | – | – | – | – |
| O=c1c2ccccc2nc2n1-c1ccc(Br)cc1/C2=N\OCCN1CCCCC1 | 2 µM | 1 µM | 2 µM | 0.095 µM | 0.3 µM | 2.5 µM | 0.55 µM | 3 µM | – | – | – | – | – |
| CN(C)CCCO/N=C1\c2cc([N+](=O)[O-])ccc2-n2c1nc1ccccc1c2=O | 0.09 µM | 0.6 µM | 0.4 µM | 2.5 µM | 4 µM | 0.4 µM | 2 µM | 0.5 µM | – | 76% | – | 23% | 14% |
| O=c1c2ccccc2nc2n1-c1ccccc1C2(O)OCCOc1ccccc1 (centres undefined) | > 100 µM | > 100 µM | > 100 µM | > 100 µM | > 100 µM | > 100 µM | > 100 µM | > 100 µM | – | – | – | – | – |
| O=C1c2ccccc2-n2c1nc1ccc(Br)cc1c2=O | > 100 µM | > 100 µM | > 100 µM | > 100 µM | > 100 µM | > 100 µM | > 100 µM | > 100 µM | – | – | – | – | – |
| O=C1c2cc3c(cc2-n2c1nc1ccccc1c2=O)OCO3 | > 100 µM | > 100 µM | > 100 µM | > 100 µM | > 100 µM | > 100 µM | > 100 µM | > 100 µM | – | – | – | – | – |
| O=C1c2ccccc2-n2c1nc1ccccc1c2=O [TRYPTANTHRIN] | 0.95 µM | 2.5 µM | 15 µM | 100 µM | 30 µM | 15 µM | 0.4 µM | 5 µM | – | – | – | – | – |
